Test results published in PMC11444265 (European journal of medicinal chemistry, 2021).
Converted amounts (≈) assume the structure as drawn. “And” between values parts separate entries of the source, which are not always exact repeats. Equal values may be shown once. “Also recorded” adds a separate entry of the source. Peptide text beside a SMILES is read from it. * marks the point of attachment. βNA = c1ccc2cc(N*)ccc2c1

What was measured:
[1] = system: Acinetobacter spp.; assay: MIC in low iron media, 198-member panel of Acinetobacter spp. clinical isolates; type: cell-based
[2] = system: Acinetobacter spp. isolates resistant to 2; assay: MIC of 2 in combination with efflux pump inhibitors; type: cell-based; details: for direct effect of efflux pump inhibitor on growth: 2 μg/mL for CCCP and 32 μg/mL for PAβN
[3] = system: P. aeruginosa AR-BANK#0229; assay: Neutropenic mouse thigh infection model; type: in vivo; details: 50 and 100 mg/kg SC q6h, neutropenic mice
[4] = mice; cited from earlier work
[5] = system: P. aeruginosa; type: cell-based, Pseudomonas aeruginosa; details: for susceptibility of strain: strain AR-BANK#0229
[6] = system: K. pneumoniae; type: cell-based; details: Klebsiella pneumoniae
[7] = system: carbapenem-resistant A. baumannii (CRAB); assay: MIC in low iron media, 98-member carbapenem-resistant A. baumannii; type: cell-based
[8] = system: Caco-2; assay: Caco-2 permeability; type: in vitro ADME
[9] = Plasma protein binding, mouse; type: in vitro ADME
[10] = Plasma protein binding, human; type: in vitro ADME
[11] = system: 8 CYP enzymes; assay: CYP inhibition panel; type: in vitro ADME; details: 7 of the 8 CYP enzymes tested, 30 μM
[12] = system: human primary hepatocytes; assay: Cytotoxicity in human primary hepatocytes; type: cell-based; details: maximal dose of 100 μM
[13] = system: 6 ion channels, including hERG; assay: Ion channel panel; details: 30 μM maximal dose
[14] = Pharmacokinetics in CD-1 mice, 50 mg/kg sc or iv; type: in vivo; details: for Sample Conc (individual mouse plasma): sc 50 mg/kg
[15] = system: MDR strains of K. pneumoniae, Acinetobacter spp., and P. aeruginosa; assay: MIC50 summary against MDR strains; type: cell-based

`C[C@H]1[C@H](NC(=O)/C(=N\OC(C)(C)C(=O)O)c2csc(N)n2)C(=O)N1S(=O)(=O)O` [Aztreonam (3), aztreonam] gave an MIC50 ([1]; Acinetobacter) of over 32 µg/mL and an MIC90 ([1]; Acinetobacter) of over 32 µg/mL.
With `N#CC(C#N)=NNc1cccc(Cl)c1` [CCCP, carbonyl cyanide 3-chlorophenylhydrazone, reference compound] the “direct effect of efflux pump inhibitor on growth” value [2] was “No significant inhibition effect on growth”.
Compound `CC(C)(O/N=C(\C(=O)N[C@@H]1C(=O)N2C(C(=O)[O-])=C(C[n+]3ccccc3)CS[C@H]12)c1csc(N)n1)C(=O)O` [Ceftazidime (4), ceftazidime] has an MIC90 ([1]; Acinetobacter) of over 64 µg/mL.
In the case of `CC(C)(O/N=C(\C(=O)N[C@H]1CN2CC(C(=O)NCCN3C(=O)c4cc(O)c(O)cc4C3=O)=C(C(=O)O)N2C1=O)c1csc(N)n1)C(=O)O` [Compound 1], the “efficacy (thigh bacterial burden, CFU)” value [3] is listed as “not found to have efficacy” and the “plasma concentration at the 6-hour timepoint” value [4] is listed as “about 0.35 mg/mL”.
For `CC(C)(O/N=C(\C(=O)N[C@H]1CN2CC(C(=O)NCCN3C(=O)c4cc(O)c(O)cc4C3=O)=C(C(=O)O)N2C1=O)c1nc(N)sc1Cl)C(=O)O` [Compound 2, (S,Z)-6-(2-(2-amino-5-chlorothiazol-4-yl)-2-(((2-carboxypropan-2-yl)oxy)imino)acetamido)-2-((2-(5,6-dihydroxy-1,3-dioxoisoindolin-2-yl)ethyl)carbamoyl)-5-oxo-6,7-dihydro-1H,5H-pyrazolo[1,2-a]pyrazole-3-carboxylic acid], the MIC50 ([5]; Pseudomonas aeruginosa) was 500 µg/mL (≈ 693 µM), the MIC50 [6] was 1000 µg/mL (≈ 1390 µM) and the “fraction of strains with MICs >=16 μg/mL” value ([1]; 24 of 198 tested strains) was 12%. For the same compound, the MIC90 ([1]; Acinetobacter) was over 16 µg/mL, the “share of panel that could be susceptible” value ([1]; full 198 member panel, 2 with 20 μg/mL coadministration of sulbactam) was 98% and the “susceptibility of panel (isolates susceptible)” value ([7]; 98 CRAB subset, cefiderocol breakpoint <=4 μg/mL applied, 81 out of 98) was 83%. The “fraction of strains with MICs >=16 μg/mL” value ([7]; carbapenem-resistant subgroup, 15 of 98) was 15%, the Caco-2 permeability [8] was “poor Caco-2 permeability” and the protein-bound [9] was 94%. The protein-bound [10] was 88%, the CYP inhibition [11] was “does not inhibit” and the cytotoxicity [12] was “not found”. The ion channel inhibition [13] was “did not inhibit these channels”, the “plasma level at the 6h time point” value ([14]; CD-1 mice, by both dosing routes (sc and iv)) was over 1.0 mg/mL and the “Sample Conc (individual mouse plasma)” value ([14]; 0.167 h) was 48689 ng/mL and 44921 ng/mL. The “Sample Conc (individual mouse plasma)” value ([14]; 0.5 h) was 14355 ng/mL and 14094 ng/mL, the “Sample Conc (individual mouse plasma)” value ([14]; 1 h) was 3515 ng/mL and 3186 ng/mL and the “Sample Conc (individual mouse plasma)” value ([14]; 2 h) was 2876 ng/mL. For the same compound, the “Sample Conc (individual mouse plasma)” value ([14]; 4 h) was 1534 ng/mL and 739 ng/mL, the “Sample Conc (individual mouse plasma)” value ([14]; 6 h) was 1102 ng/mL and 1425 ng/mL and the “Sample Conc (individual mouse plasma)” value ([14]; 8 h) was 1473 ng/mL and 1126 ng/mL. For the same compound, the “Sample Conc (individual mouse plasma)” value ([14]; 24 h) was 545 ng/mL and 579 ng/mL, the “efficacy (thigh bacterial burden, CFU)” value [3] was “dose-dependent efficacy; also recorded: dose-dependent reduction in CFU values” and the “effect of efflux pump inhibitors on MIC of 2” value ([2]; combined with CCCP 2 μg/mL or PAβN 32 μg/mL) was “no consistent effect on MIC values”. For the same compound, the “effect of combination with CCCP” value ([2]; isolate PR-452, CCCP 2 μg/mL) was “Potential synergistic effects” and the MIC50 [15] was at most 0.5 µg/mL.
For `CC1(C)[C@H](C(=O)O)N2C(=O)C[C@H]2S1(=O)=O` [Compound 10, sulbactam], the “isolates with MICs <=16 μg/mL” value ([1]; 24 isolates with MIC of 2 >=16 μg/mL, 19/24) was 79%.
`C[C@@H](O)[C@H]1C(=O)N2C(C(=O)O)=C(S[C@@H]3CN[C@H](C(=O)N(C)C)C3)[C@H](C)[C@H]12` [Meropenem (5), meropenem, reference compound] gave an MIC90 ([1]; Acinetobacter) of over 64 µg/mL, an MIC90 ([7]; Acinetobacter baumannii) of over 64 µg/mL and an MIC50 [15] of over 8 µg/mL.
For `NC(N)=NCCC[C@H](NC(=O)[C@@H](N)Cc1ccccc1)C(=O)Nc1ccc2ccccc2c1` [PaβN, phenylalanine-arginine β-naphthylamide, reference compound] (H-Phe-Arg-βNA), the “direct effect of efflux pump inhibitor on growth” value [2] was “No significant inhibition effect on growth”.
For `NCC[C@H](O)C(=O)N[C@@H]1C[C@H](N)[C@@H](O[C@H]2O[C@H](CN)[C@@H](O)[C@H](O)[C@H]2O)[C@H](O)[C@H]1O[C@H]1O[C@H](CO)[C@@H](O)[C@H](N)[C@H]1O` [amikacin], the susceptibility of strain [5] was “susceptible”.
For `CNC(C)C1CCC(N)C(OC2C(N)CC(N)C(OC3OCC(C)(O)C(NC)C3O)C2O)O1` (stereo not shown) [gentamicin], the susceptibility of strain [5] was “susceptible”.
With colistin the susceptibility of strain [5] was “susceptible”.
